Measurements: patent US8975398B2, “NAMPT inhibitors” (AbbVie Inc., priority 2012, dated 2015)

How the values were obtained:
[1] = biological target: NAMPT (human, recombinant, C-terminally His-tagged) (Homo sapiens, UniProt P43490); assay: Time-Resolved Fluorescence Resonance Energy Transfer (TR-FRET) Binding Assay of NAMPT; conditions: 6.8 nM NAMPT, 200 nM probe, equilibrated 3 hours, absence of substrates
Summary of the method: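 Recombinant C-terminally His-tagged human NAMPT (6.8 nM) incubated 3 h at room temperature with 200 nM Oregon Green 488–labelled nicotinamide-competitive probe and 1 nM Tb-anti-His antibody in HEPES pH 7.5, 2% DMSO. TR-FRET ratio Em520/Em495 normalized to controls; IC50 from four-parameter logistic fit.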

NAMPT = NAMPT (Homo sapiens, UniProt P43490); assay: Time-Resolved Fluorescence Resonance Energy Transfer (TR-FRET) Binding Assay of NAMPT with PRPP; conditions: 2 nM NAMPT, 2 nM probe, 200 uM PRPP and 2.5 mM ATP, equilibrated 16 hours
NAMPT, sequence (P43490 whole entry): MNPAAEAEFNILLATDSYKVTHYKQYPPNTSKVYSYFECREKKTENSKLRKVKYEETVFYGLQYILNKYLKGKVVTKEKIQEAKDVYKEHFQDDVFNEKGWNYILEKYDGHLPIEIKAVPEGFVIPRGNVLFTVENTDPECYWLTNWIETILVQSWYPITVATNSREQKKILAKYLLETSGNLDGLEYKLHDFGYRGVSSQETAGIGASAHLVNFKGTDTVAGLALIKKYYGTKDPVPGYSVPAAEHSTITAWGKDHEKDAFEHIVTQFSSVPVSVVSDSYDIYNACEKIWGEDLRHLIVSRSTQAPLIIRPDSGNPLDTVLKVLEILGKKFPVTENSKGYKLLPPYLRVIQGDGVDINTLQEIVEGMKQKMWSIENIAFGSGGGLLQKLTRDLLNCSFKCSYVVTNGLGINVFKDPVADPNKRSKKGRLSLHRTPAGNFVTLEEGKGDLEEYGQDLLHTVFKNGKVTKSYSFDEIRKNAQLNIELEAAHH
Summary of the method: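 Final mix: 2 nM NAMPT, 2 nM probe, 1 nM Tb-anti-His antibody, 200 uM PRPP, 2.5 mM ATP, 2% DMSO in 1× assay buffer. Equilibrated 16 hours before TR-FRET read, allowing possible enzymatic modification of compounds.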

NAMPT (human, recombinant, C-terminally His-tagged), sequence (P43490 whole entry): as above

SMILES | IC50 [1] [nM] | IC50 (NAMPT) [nM]
O=C(Nc1ccc(OC2CCN(C(=O)Cc3cc(F)cc(F)c3)CC2)cc1)C1CN(c2cccnn2)C1 [Example 239, N-[4-({1-[(3,5-difluorophenyl)acetyl]piperidin-4-yl}oxy)phenyl]-1-(pyridazin-3-yl)azetidine-3-carboxamide] | 112 | 0.833
CCOCC(=O)N1CCC(c2ccc(NC(=O)C3CN(c4cccnc4C)C3)cc2)CC1 [Example 191, N-{4-[1-(ethoxyacetyl)piperidin-4-yl]phenyl}-1-(2-methylpyridin-3-yl)azetidine-3-carboxamide] | 743 | 184
Cc1ncccc1N1CC(C(=O)Nc2ccc(C3CCN(C(=O)CC(C)C)CC3)cc2)C1 [Example 197, N-{4-[1-(3-methylbutanoyl)piperidin-4-yl]phenyl}-1-(2-methylpyridin-3-yl)azetidine-3-carboxamide] | 126 | 79.8
O=C(Nc1ccc(OC2CCN(C(=O)C3CCOCC3)CC2)cc1)C1CN(c2ccnnc2)C1 [Example 306, 1-(pyridazin-4-yl)-N-(4-{[1-(tetrahydro-2H-pyran-4-ylcarbonyl)piperidin-4-yl]oxy}phenyl)azetidine-3-carboxamide] | 112 | 46.3
O=C(Nc1ccc(OC2CCN(CC3CC3)CC2)cc1)C1CN(c2cccnc2)C1 [Example 74, N-(4-{[1-(cyclopropylmethyl)piperidin-4-yl]oxy}phenyl)-1-(pyridin-3-yl)azetidine-3-carboxamide] | 911 | 0.666
CC(C)(C)OC(=O)N1CCC(Oc2ccc(NC(=O)[C@@H]3CCN(c4cccnc4)C3)cc2)CC1 [Example 9, tert-butyl 4-[4-({[(3R)-1-(pyridin-3-yl)pyrrolidin-3-yl]carbonyl}amino)phenoxy]piperidine-1-carboxylate] | 8620 | 17.2
O=C(Nc1ccc(C2CCN(C(=O)c3cccs3)CC2)cc1)C1CN(c2cccnc2)C1 [Example 127, 1-(pyridin-3-yl)-N-{4-[1-(thiophen-2-ylcarbonyl)piperidin-4-yl]phenyl}azetidine-3-carboxamide] | 3.64 | 0.391
O=C(Nc1ccc(C2CCN(C(=O)CCC(F)(F)F)CC2)cc1)C1CN(c2cccnc2)C1 [Example 112, 1-(pyridin-3-yl)-N-{4-[1-(4,4,4-trifluorobutanoyl)piperidin-4-yl]phenyl}azetidine-3-carboxamide] | 40.2 | 0.362
CC(C)(O)C(=O)N1CCC(c2ccc(NC(=O)C3CN(c4cccnc4C#N)C3)cc2)CC1 [Example 2, 1-(2-cyanopyridin-3-yl)-N-{4-[1-(2-hydroxy-2-methylpropanoyl)piperidin-4-yl]phenyl}azetidine-3-carboxamide] | 22.3 | 20
Cc1ccc(C(=O)N2CCC(c3ccc(NC(=O)C4CN(c5cccnc5C)C4)cc3)CC2)s1 [Example 186, 1-(2-methylpyridin-3-yl)-N-(4-{1-[(5-methylthiophen-2-yl)carbonyl]piperidin-4-yl}phenyl)azetidine-3-carboxamide] | 98.9 | 118
Cc1ncccc1N1CC(C(=O)Nc2ccc(C3CCN(C(=O)CN4CCN(C)CC4)CC3)cc2)C1 [Example 173, N-(4-{1-[(4-methylpiperazin-1-yl)acetyl]piperidin-4-yl}phenyl)-1-(2-methylpyridin-3-yl)azetidine-3-carboxamide] | 524 | 154
O=C(Nc1ccc(OC2CN(C(=O)c3ccc(F)cc3F)C2)cc1)C1CN(c2ccnnc2)C1 [Example 200, N-(4-{[1-(2,4-difluorobenzoyl)azetidin-3-yl]oxy}phenyl)-1-(pyridazin-4-yl)azetidine-3-carboxamide] | 33.1 | 34.4
O=C(Nc1ccc(OC2CCN(C(=O)CC3CCCCC3)CC2)cc1)C1CN(c2cccnc2)C1 [Example 50, N-(4-{[1-(cyclohexylacetyl)piperidin-4-yl]oxy}phenyl)-1-(pyridin-3-yl)azetidine-3-carboxamide] | 63.5 | 1.1
C#CCCC(=O)N1CCC(c2ccc(NC(=O)C3CN(c4cccnn4)C3)cc2)CC1 [Example 338, N-{4-[1-(pent-4-ynoyl)piperidin-4-yl]phenyl}-1-(pyridazin-3-yl)azetidine-3-carboxamide] | 27.6 | 0.52
CCC(=O)N1CCC(Oc2ccc(NC(=O)C3CN(c4cccnc4)C3)cc2)CC1 [Example 65, N-{4-[(1-propanoylpiperidin-4-yl)oxy]phenyl}-1-(pyridin-3-yl)azetidine-3-carboxamide] | 121 | 0.704
O=C(Nc1ccc(OC2CCN(C(=O)c3ccccc3F)CC2)cc1)C1CN(c2ccnnc2)C1 [Example 289, N-(4-{[1-(2-fluorobenzoyl)piperidin-4-yl]oxy}phenyl)-1-(pyridazin-4-yl)azetidine-3-carboxamide] | 41.6 | 32.1

SMILES | IC50 [1] [nM] | IC50 (NAMPT) [nM]
Cc1ccc(C(=O)N2CCC(c3ccc(NC(=O)C4CN(c5cccnn5)C4)cc3)CC2)cc1C [Example 360, N-{4-[1-(3,4-dimethylbenzoyl)piperidin-4-yl]phenyl}-1-(pyridazin-3-yl)azetidine-3-carboxamide] | 22 | 0.782
CC(C)CCC(=O)N1CCC(c2ccc(NC(=O)C3CN(c4cccnn4)C3)cc2)CC1 [Example 324, N-{4-[1-(4-methylpentanoyl)piperidin-4-yl]phenyl}-1-(pyridazin-3-yl)azetidine-3-carboxamide] | 47.3 | 1.04
O=C(Nc1ccc(C2CCN(CC3CCCCC3)CC2)cc1)C1CN(c2cccnc2)C1 [Example 86, N-{4-[1-(cyclohexylmethyl)piperidin-4-yl]phenyl}-1-(pyridin-3-yl)azetidine-3-carboxamide] | 1260 | 0.833
Cc1ncccc1N1CC(C(=O)Nc2ccc(C3CCN(C(=O)c4cc(Cl)cc(Cl)c4)CC3)cc2)C1 [Example 154, N-{4-[1-(3,5-dichlorobenzoyl)piperidin-4-yl]phenyl}-1-(2-methylpyridin-3-yl)azetidine-3-carboxamide] | 524 | 16.1
Cc1cccc(C(=O)N2CCC(c3ccc(NC(=O)C4CN(c5cccnn5)C4)cc3)CC2)c1 [Example 341, N-{4-[1-(3-methylbenzoyl)piperidin-4-yl]phenyl}-1-(pyridazin-3-yl)azetidine-3-carboxamide] | 35.1 | 0.727
O=C(Nc1ccc(C2CCN(C(=O)CCN3CCCCC3)CC2)cc1)C1CN(c2cccnc2)C1 [Example 130, N-(4-{1-[3-(piperidin-1-yl)propanoyl]piperidin-4-yl}phenyl)-1-(pyridin-3-yl)azetidine-3-carboxamide] | 288 | 0.535
CC(C)(C)C(=O)N1CCC(c2ccc(NC(=O)[C@H]3CCN(c4cccnn4)C3)cc2)CC1 [Example 313, (3S)—N-{4-[1-(2,2-dimethylpropanoyl)piperidin-4-yl]phenyl}-1-(pyridazin-3-yl)pyrrolidine-3-carboxamide] | 217 | 4.13
O=C(Nc1ccc(OC2CCN(C(=O)c3ccc(F)c(F)c3)CC2)cc1)C1CN(c2ccnnc2)C1 [Example 274, N-(4-{[1-(3,4-difluorobenzoyl)piperidin-4-yl]oxy}phenyl)-1-(pyridazin-4-yl)azetidine-3-carboxamide] | 152 | 64.5
O=C(Nc1ccc(C2CCN(C(=O)c3ccccc3O)CC2)cc1)C1CN(c2cccnn2)C1 [Example 342, N-{4-[1-(2-hydroxybenzoyl)piperidin-4-yl]phenyl}-1-(pyridazin-3-yl)azetidine-3-carboxamide] | 13.1 | 0.698
O=C(Nc1ccc(OC2CCN(C(=O)Cc3ccc(OC(F)(F)F)cc3)CC2)cc1)C1CN(c2cccnn2)C1 [Example 238, 1-(pyridazin-3-yl)-N-{4-[(1-{[4-(trifluoromethoxy)phenyl]acetyl}piperidin-4-yl)oxy]phenyl}azetidine-3-carboxamide] | 207 | 0.554
CCCCC(=O)N1CCC(c2ccc(NC(=O)C3CN(c4cccnn4)C3)cc2)CC1 [Example 318, N-[4-(1-pentanoylpiperidin-4-yl)phenyl]-1-(pyridazin-3-yl)azetidine-3-carboxamide] | 37.7 | 0.716
O=C(Nc1ccc(OC2CCN(C(=O)c3cccc(OC(F)(F)F)c3)CC2)cc1)C1CN(c2ccnnc2)C1 [Example 292, 1-(pyridazin-4-yl)-N-[4-({1-[3-(trifluoromethoxy)benzoyl]piperidin-4-yl}oxy)phenyl]azetidine-3-carboxamide] | 99 | 64.7
CCC(CC)C(=O)N1CCC(c2ccc(NC(=O)C3CN(c4cccnn4)C3)cc2)CC1 [Example 328, N-{4-[1-(2-ethylbutanoyl)piperidin-4-yl]phenyl}-1-(pyridazin-3-yl)azetidine-3-carboxamide] | 12.2 | 0.614
CCCN1CCC(c2ccc(NC(=O)C3CN(c4cccnc4)C3)cc2)CC1 [Example 95, N-[4-(1-propylpiperidin-4-yl)phenyl]-1-(pyridin-3-yl)azetidine-3-carboxamide] | 1360 | 1.02
CC[C@H](C)C(=O)N1CCC(Oc2ccc(NC(=O)C3CN(c4cccnn4)C3)cc2)CC1 [Example 212, N-[4-({1-[(2S)-2-methylbutanoyl]piperidin-4-yl}oxy)phenyl]-1-(pyridazin-3-yl)azetidine-3-carboxamide] | 70.4 | 0.787
